Laboratory results as given in patent US20100216779A1 (GLAXOSMITHKLINE LLC, priority 2007, published 2010).

System: various cell lines of different tumor origins
Assay: Inhibition of cell proliferation, InCell Analyzer assay
Format: cell-based
Protocol: C. Inhibition of Cell Proliferation
For InCell Analyser assay, various cell lines of different tumor origins were grown to 70-80% confluency in appropriate culture media containing 10% fetal bovine serum at 37° C. in a 5% CO2 incubator. On day-1, cells were seeded at 2 densities in 384-well plates and incubated at 37° C. overnight. Stock compound plates were prepared in advance which contained dimethyl sulfoxide (DMSO) alone and a 9-point half-log decreasing dose range of the compound of Example 22 in DMSO. The compound plates were stored at −80° C. and each plate was only thawed once and used. On day 0, the main assay plates received compound or DMSO via a sonic delivery system (ECHO). The highest final concentration of compound of the dose range in the culture plates was 10 uM. These plates were cultured at 37° C. for 3 days. […] On day 3, the compound treated plates were stained and fixed to measure proliferation, apoptosis, and mitotic index using an InCell1000 analyser. A nuclear stain was used to identify cells in the wells. By counting the number of nuclei, the proliferation index of compound treated groups were calculated as a percentage relative to the DMSO control, which was set to 100%. The IC50 values were calculated using model 205 in ExcelFit.

- IC50 (5637, Bladder): > 5 µM
- IC50 (A7, Skin): 1 to 5 µM
- IC50 (AGS, Stomach): 1 to 5 µM
- IC50 (B-cell, BC-1, lymphoma - B cell unspecified): 1 to 5 µM
- IC50 (B-cell, BC-2, lymphoma - B cell unspecified): 1 to 5 µM
- IC50 (B-cell, BC-3, lymphoma - B cell unspecified): 1 to 5 µM
- IC50 (B-cell, DB, lymphoma - diffuse large B cell): 1 to 5 µM
- IC50 (C3A, Liver): 1 to 5 µM
- IC50 (C32TG, Skin): 1 to 5 µM
- IC50 (C-4I, Cervix): 1 to 5 µM
- IC50 (CEM/C1, CEM/C1, acute lymphoblastic leukaemia): > 5 µM
- IC50 (CESS, AML): > 5 µM
- IC50 (CML-T1, CML-T1, CML blast phase): < 1 µM
- IC50 (COLO 704, COLO-704, Ovary): > 5 µM
- IC50 (CRO-AP5, CRO-AP5, lymphoma - B cell unspecified): > 5 µM
- IC50 (DK-MG, glioma): 1 to 5 µM
- IC50 (EM-2, CML blast phase): > 5 µM
- IC50 (ES2, Ovary): 1 to 5 µM
- IC50 (GCT, Sarcoma): 1 to 5 µM
- IC50 (H4, glioma): > 5 µM
- IC50 (HN5, H&N): 1 to 5 µM
- IC50 (HOS, Sarcoma): < 1 µM
- IC50 (HT-3, Cervix): > 5 µM
- IC50 (Homo sapiens, 639-V, Bladder): 1 to 5 µM
- IC50 (Homo sapiens, 647-V, Bladder): 1 to 5 µM
- IC50 (Homo sapiens, 769-P, Kidney): 1 to 5 µM
- IC50 (Homo sapiens, 786-0, 786-0, Kidney): 1 to 5 µM
- IC50 (Homo sapiens, A101D, Skin): 1 to 5 µM
- IC50 (Homo sapiens, A 172, A172, glioma): 1 to 5 µM
- IC50 (Homo sapiens, A204, A204, Sarcoma - rhabdomyosarcoma): 1 to 5 µM
- IC50 (Homo sapiens, A498, A-498, Kidney): 1 to 5 µM
- IC50 (Homo sapiens, A673, A673, Sarcoma): < 1 µM
- IC50 (Homo sapiens, A2780, A2780, Ovary): < 1 µM
- IC50 (Homo sapiens, A-375, A375, Skin): 1 to 5 µM
- IC50 (Homo sapiens, A-427, A427, Lung): 1 to 5 µM
- IC50 (Homo sapiens, A-431, A-431, Skin): < 1 µM
- IC50 (Homo sapiens, ACHN, Kidney): 1 to 5 µM
- IC50 (Homo sapiens, AN3-CA, AN3CA, Uterus): 1 to 5 µM
- IC50 (Homo sapiens, ARH-77, ARH-77, Myeloma - plasma cell): 1 to 5 µM
- IC50 (Homo sapiens, ASPC1, AsPC-1, Pancreas): < 1 µM
- IC50 (Homo sapiens, BE(2)-C, BE(2)C, Brain): < 1 µM
- IC50 (Homo sapiens, BFTC-905, BFTC-905, Bladder): < 1 µM
- IC50 (Homo sapiens, BHT-101, BHT-101, Thyroid): > 5 µM
- IC50 (Homo sapiens, BPH-1, BPH1, Prostate): 1 to 5 µM
- IC50 (Homo sapiens, BT-20, BT-20, Breast): 1 to 5 µM
- IC50 (Homo sapiens, BT-474, BT474, Breast): 1 to 5 µM
- IC50 (Homo sapiens, BV-173, BV-173, CML blast phase): 1 to 5 µM
- IC50 (Homo sapiens, BXPC-3, BxPC-3, Pancreas): > 5 µM
- IC50 (Homo sapiens, BeWo, Placenta): 1 to 5 µM
- IC50 (Homo sapiens, C-4-II, C-4II, Cervix): 1 to 5 µM
- IC50 (Homo sapiens, C-33-A, C-33A, Cervix): 1 to 5 µM
- IC50 (Homo sapiens, CAKI-1, Caki-1, Kidney): > 5 µM
- IC50 (Homo sapiens, CAKI-2, Caki-2, Kidney): 1 to 5 µM
- IC50 (Homo sapiens, CAL-27, Cal27, H&N): > 5 µM
- IC50 (Homo sapiens, CAL-54, CAL-54, Kidney): 1 to 5 µM
- IC50 (Homo sapiens, CAL-62, CAL-62, Thyroid): 1 to 5 µM
- IC50 (Homo sapiens, CAPAN-1, Capan-1, Pancreas): < 1 µM
- IC50 (Homo sapiens, CCF-STTG1, CCF-STTG1, glioma): 1 to 5 µM
- IC50 (Homo sapiens, CGTH-W-1, CGTH-W-1, Thyroid): 1 to 5 µM
- IC50 (Homo sapiens, CHL-1, CHL-1, Skin): 1 to 5 µM
- IC50 (Homo sapiens, CHP-212, CHP-212, neuroblastoma): < 1 µM
- IC50 (Homo sapiens, COLO-829, Colo-829, Skin): > 5 µM
- IC50 (Homo sapiens, CRO-AP2, CRO-AP2, lymphoma - B cell unspecified): 1 to 5 µM
- IC50 (Homo sapiens, Caov-3, CAOV-3, Ovary): 1 to 5 µM
- IC50 (Homo sapiens, Capan-2, Capan-2, Pancreas): 1 to 5 µM
- IC50 (Homo sapiens, D283 Med, D283Med, medulloblastoma): 1 to 5 µM
- IC50 (Homo sapiens, DBTRG-05MG, glioma): > 5 µM
- IC50 (Homo sapiens, DU-4475, DU4475, Breast): 1 to 5 µM
- IC50 (Homo sapiens, Detroit 562, Detroit562, H&N): 1 to 5 µM
- IC50 (Homo sapiens, DoTc2-4510, DoTc2-4510, Cervix): > 5 µM
- IC50 (Homo sapiens, EFM-19, EFM-19, Breast): 1 to 5 µM
- IC50 (Homo sapiens, EKVX, Lung): 1 to 5 µM
- IC50 (Homo sapiens, FaDu, H&N): 1 to 5 µM
- IC50 (Homo sapiens, G-401, G-401, kidney): 1 to 5 µM
- IC50 (Homo sapiens, G-402, G-402, Kidney): 1 to 5 µM
- IC50 (Homo sapiens, GDM-1, GDM-1, AML): < 1 µM
- IC50 (Homo sapiens, HCC38, HCC38, Breast): 1 to 5 µM
- IC50 (Homo sapiens, HCC1143, HCC1143, Breast): 1 to 5 µM
- IC50 (Homo sapiens, HCC1395, HCC1395, Breast): 1 to 5 µM
- IC50 (Homo sapiens, HCC1937, HCC1937, Breast): > 5 µM
- IC50 (Homo sapiens, HCC1954, HCC1954, Breast): 1 to 5 µM
- IC50 (Homo sapiens, HCC2157, HCC2157, Breast): > 5 µM
- IC50 (Homo sapiens, HCC2218, HCC2218, Breast): > 5 µM
- IC50 (Homo sapiens, HCC 2998, HCC-2998, Colon): 1 to 5 µM
- IC50 (Homo sapiens, HEC-1-A, Uterus): > 5 µM
- IC50 (Homo sapiens, HEC-1B, HEC-1-B, Uterus): 1 to 5 µM
- IC50 (Homo sapiens, HEL 92.1.7, HEL-92.1.7, erythroleukemia): > 5 µM
- IC50 (Homo sapiens, HMCB, Skin): 1 to 5 µM
- IC50 (Homo sapiens, HOP-62, HOP-62, Lung): > 5 µM
- IC50 (Homo sapiens, HOP-92, HOP-92, Lung): 1 to 5 µM
- IC50 (Homo sapiens, HPAC, Pancreas): < 1 µM
- IC50 (Homo sapiens, HPAF-II, HPAFII, Pancreas): > 5 µM
- IC50 (Homo sapiens, HT1197, HT1197, Bladder): > 5 µM
- IC50 (Homo sapiens, HT-29, HT-29, Colon): < 1 µM
- IC50 (Homo sapiens, HT-1080, HT-1080, Sarcoma - fibrosarcoma): < 1 µM
- IC50 (Homo sapiens, HT-1376, HT1376, Bladder): > 5 µM
- IC50 (Homo sapiens, HeLa, Cervix): > 5 µM
- IC50 (Homo sapiens, Hep3B, Liver): 1 to 5 µM
- IC50 (Homo sapiens, HepG2, HepG2, Liver): 1 to 5 µM
- IC50 (Homo sapiens, Hs746T, Stomach): > 5 µM
- IC50 (Homo sapiens, HuP-T4, HuP-T4, Pancreas): > 5 µM
- IC50 (Homo sapiens, HuT78, Hut78, lymphoma - cutaneous T cell): 1 to 5 µM
- IC50 (Homo sapiens, IGROV-1, IGROV1, Ovary): < 1 µM
- IC50 (Homo sapiens, J-RT3-T3-5, J.RT3-T3.5, acute lymphoblastic leukaemia): 1 to 5 µM
- IC50 (Homo sapiens, JEG-3, JEG-3, Placenta): < 1 µM
- IC50 (Homo sapiens, K562, K-562, CML): > 5 µM
- IC50 (Homo sapiens, KATO III, KATOIII, Stomach): > 5 µM
- IC50 (Homo sapiens, KM12, KM12, Colon): > 5 µM
- IC50 (Homo sapiens, LOX IMVI, Skin): > 5 µM
- IC50 (Homo sapiens, LS174T, Colon): 1 to 5 µM
- IC50 (Homo sapiens, LS-1034, LS1034, Colon): < 1 µM
- IC50 (Homo sapiens, MC-IXC, neuroblastoma): < 1 µM
- IC50 (Homo sapiens, MCF7, MCF7, Breast): < 1 µM
- IC50 (Homo sapiens, MDA-MB-175-VII, Breast): 1 to 5 µM
- IC50 (Homo sapiens, MDA-MB-231, MDA-MB-231, Breast): 1 to 5 µM
- IC50 (Homo sapiens, MDA-MB-435, MDA-MB-435, Breast (Melanoma)): 1 to 5 µM
- IC50 (Homo sapiens, MDA-MB-453, MDA-MB-453, Breast): 1 to 5 µM
- IC50 (Homo sapiens, MDA-MB-468, MDA-MB-468, Breast): 1 to 5 µM
- IC50 (Homo sapiens, MES-SA, Sarcoma): > 5 µM
- IC50 (Homo sapiens, MIA PaCa-2, MiaPaCa, Pancreas): < 1 µM
- IC50 (Homo sapiens, MOLT-16, MOLT-16, acute lymphoblastic leukaemia): 1 to 5 µM
- IC50 (Homo sapiens, MV4-11, MV-4-11, acute leukaemia of ambiguous lineage): 1 to 5 µM
- IC50 (Homo sapiens, Malme-3M, Skin): > 5 µM
- IC50 (Homo sapiens, NCI-H69, NCI-H69, Lung): 1 to 5 µM
- IC50 (Homo sapiens, NCI-H82, NCI-H82, Lung): 1 to 5 µM
- IC50 (Homo sapiens, NCI-H146, NCI-H146, Lung): > 5 µM
- IC50 (Homo sapiens, NCI-H209, NCI-H209, Lung): 1 to 5 µM
Compound: COc1cc(N2CCC(N3CCCCC3)CC2)ccc1Nc1nccc(-c2c(-c3cccc(C(=O)Nc4c(F)cccc4F)c3)nc3ccccn23)n1 [Example 22, 3-[3-(2-{[4-(1,4′-bipiperidin-1′-yl)-2-(methyloxy)phenyl]amino}-4-pyrimidinyl)imidazo[1,2-a]pyridin-2-yl]-N-(2,6-difluorophenyl)benzamide]
- IC50 (Homo sapiens, HCC70, HCC70, Breast): 1 to 5 µM
- IC50 (Homo sapiens, MCF-10A, MCF10a, Breast (Normal)): < 1 µM
